Measured values: the NIST ThermoML archive (doi:10.1021/je050070r)
Numbers after ± are expanded uncertainties.

Settings: Liquid

O=C(O)C(F)(F)C(F)(F)C(F)(F)C(F)(F)C(F)(F)C(F)(F)C(F)(F)C(F)(F)C(F)(F)C(F)(F)C(F)(F)F [dodecanoic acid, tricosafluoro-]
Settings	vapor or sublimation pressure [kPa]
400.73 K	0.856 ± 0.12
413.72 K	1.819 ± 0.17
422.1 K	2.854 ± 0.2
422.75 K	2.985 ± 0.2
433.27 K	4.848 ± 0.24
445.63 K	8.29 ± 0.33
457.94 K	13.81 ± 0.47
470.59 K	22.07 ± 0.67
483.66 K	34.48 ± 0.98
498.85 K	55.15 ± 1.5
520.51 K	99.96 ± 2.6

O=C(O)C(F)(F)C(F)(F)C(F)(F)C(F)(F)C(F)(F)C(F)(F)C(F)(F)C(F)(F)C(F)(F)F [nonadecafluorodecanoic acid]
Settings	vapor or sublimation pressure [kPa]
402.71 K	3.129 ± 0.2
406.24 K	3.749 ± 0.22
414.08 K	5.541 ± 0.26
425.35 K	9.331 ± 0.35
436.83 K	15.18 ± 0.5
447.12 K	22.77 ± 0.69
460.65 K	37.23 ± 1.1
476.08 K	62.05 ± 1.7
492.03 K	99.97 ± 2.6

O=C(O)C(F)(F)C(F)(F)C(F)(F)C(F)(F)C(F)(F)C(F)(F)C(F)(F)F [pentadecafluorooctanoic acid]
Settings	vapor or sublimation pressure [kPa]
332.4 K	0.128 ± 0.037
335.52 K	0.168 ± 0.037
339.75 K	0.231 ± 0.045
345.75 K	0.361 ± 0.061
352.15 K	0.581 ± 0.088
359.75 K	0.96 ± 0.14
368.05 K	1.602 ± 0.16
377.09 K	2.69 ± 0.19
387.15 K	4.591 ± 0.24
397.55 K	7.691 ± 0.32
409.26 K	13.07 ± 0.45
421.75 K	22.16 ± 0.67
435.35 K	37.25 ± 1.1
450.95 K	63.98 ± 1.7
463.95 K	96.5 ± 2.5

O=C(O)C(F)(F)C(F)(F)C(F)(F)C(F)(F)C(F)(F)C(F)(F)C(F)(F)C(F)(F)F [perfluorononanoic acid]
Settings	vapor or sublimation pressure [kPa]
372.78 K	1.12 ± 0.16
382.69 K	2.02 ± 0.17
390.81 K	3.12 ± 0.2
401.7 K	5.54 ± 0.26
412.92 K	9.33 ± 0.36
423.86 K	15.19 ± 0.5
432.85 K	22.77 ± 0.69
446.11 K	37.25 ± 1.1
461.08 K	62.07 ± 1.7
476.13 K	99.97 ± 2.6
476.27 K	99.97 ± 2.6

O=C(O)C(F)(F)C(F)(F)C(F)(F)C(F)(F)C(F)(F)C(F)(F)C(F)(F)C(F)(F)C(F)(F)C(F)(F)F [perfluoroundecanoic acid]
Settings	vapor or sublimation pressure [kPa]
385.19 K	0.616 ± 0.092
393.78 K	1.062 ± 0.15
402.69 K	1.752 ± 0.17
412.29 K	2.785 ± 0.19
412.41 K	2.789 ± 0.19
422.37 K	4.513 ± 0.24
431.47 K	6.925 ± 0.3
445.17 K	12.44 ± 0.43
459.92 K	20.7 ± 0.64
473.83 K	34.49 ± 0.98
475.24 K	34.48 ± 0.98
491.44 K	58.6 ± 1.6
491.79 K	58.6 ± 1.6
509.83 K	96.51 ± 2.5
510.8 K	99.97 ± 2.6
